# Measurements: patent US20060004207A1, “Preparation of new pharmaceutically suitable salt of losartan and forms thereof with new purification and isolation methods” (priority 2003, published 2006)
# Like-named read-outs stand apart in the source and are kept apart here.
# What was measured:
# [1] = Rate of dissolution of the substance, 75 mg in 50 ml 0.1 M HCl; type: physicochemical
# [2] = Solubility of crystalline forms of losartan potassium
# [3] = for Loss of weight: ~10 mBar
# Method: The sample was exposed to temperatures between 60° C. and 80° C. and negative pressure ˜10 mBar.
# [4] = Stability test, amorphous versus form with bound water, 4 days in air at 60/80° C., dry or moist; type: physicochemical; details: for Physical form when exposed to moisture: 4 days
# Method: For evaluation and comparison, respectively, of the stability, four tests were conducted.
# [5] = Dynamic vapour sorption (DVS); type: physicochemical
# Method: Measurements were performed on instrument DVS—The Sorption Solution, Surface Measurement Systems Ltd. UK.
# The principle of measurement is as follows: The sample measured is placed on one side of a very precise scale, a reference non-hydroscopic sample having been placed on the other side. The scale is located in an isolated chamber in which the relative humidity can be set. The hydroscopic sample being measured binds moisture from the environment, and an increase of mass is detected.
# The ordinate axis represents the change of mass, abscise representing the humidity.
# [6] = 10 g exposed to heat while dried
# Method: Temperature stability of the sample of polymorph Form Y was tested by exposing 10 g polymorph Form Y potassium salt of -n-butyl-4-chloro-5-hydroxymethyl-1-[[2′-(1H-tetrazol-5-yl)[1,1′-biphenyl]-4-yl]methyl]-1H-imidazole to heat while dried.
smiles,measurement,setting,value
"CCCCc1nc(Cl)c(CO)n1Cc1ccc(-c2ccccc2-c2nn[nH]n2)cc1 [Form I, losartan potassium, reference compound]",RATE OF DISSOLUTION,[1],16 min
same,solubility,"[2]; 0.1 M HCl, simulated gastric fluid",1.52 mg/mL
same,solubility,[2]; water,630 mg/mL
"CCCCc1nc(Cl)c(CO)n1Cc1ccc(-c2ccccc2-c2nnn[n-]2)cc1.[K+] [LST-K-1481, potassium salt of 2-n-butyl-4-chloro-5-hydroxymethyl-1-[[2′-(1H-tetrazol-5-yl)[1,1′-biphenyl]-4-yl]methyl]-1H-imidazole]",RATE OF DISSOLUTION,[1],14 min
same,SOLUBILITY in 0.1 M HCl,[2]; in 0.1 M HCl,1.74 mg/mL
"CCCCc1nc(Cl)c(CO)n1Cc1ccc(-c2ccccc2-c2nnn[n-]2)cc1.[K+] [LST-K-1496/1, potassium salt of 2-n-butyl-4-chloro-5-hydroxymethyl-1-[[2′-(1H-tetrazol-5-yl)[1,1′-biphenyl]-4-yl]methyl]-1H-imidazole]",RATE OF DISSOLUTION,[1],13 min
"CCCCc1nc(Cl)c(CO)n1Cc1ccc(-c2ccccc2-c2nnn[n-]2)cc1.[K+] [LST-K-3279, potassium salt of 2-n-butyl-4-chloro-5-hydroxymethyl-1-[[2′-(1H-tetrazol-5-yl)[1,1′-biphenyl]-4-yl]methyl]-1H-imidazole]",Polymorphic form after storage,[3]; 45-day storage in a closed flask at room temperature,did not change its polymorphic forms
same,Loss of weight,[3]; 60° C.,0.79%
same,Loss of weight,[3]; 80° C.,0.90%
same,Crystalline structure after heat and negative pressure,"[3]; between 60° C. and 80° C., negative pressure ~10 mBar",did not change under any of the conditions
"CCCCc1nc(Cl)c(CO)n1Cc1ccc(-c2ccccc2-c2nn[nH]n2)cc1 [Milled sample of Form I, losartan potassium, reference compound]",RATE OF DISSOLUTION,[1],8 min
"CCCCc1nc(Cl)c(CO)n1Cc1ccc(-c2ccccc2-c2nn[nH]n2)cc1 [amorphous losartan potassium, losartan potassium]",Hygroscopicity (comparison),[4],essentially more hygroscopic than the form with bound water of losartan potassium
same,Physical form when exposed to moisture,[4],merged into a glassy mass and then white crystals of form with bound water were formed
same,"Water content at repeated sorption, at which point the amorphous sample crystallizes",[5]; at 60% relative humidity,approximately 13%
same,Weight increase,[5]; at 70-80% relative humidity,20-26%
same,Absorption of water (increase of mass),"[5]; at 80% relative humidity, first sorption",25%
"CCCCc1nc(Cl)c(CO)n1Cc1ccc(-c2ccccc2-c2nnn[n-]2)cc1.[K+] [crystalline form with bound water, losartan potassium]",Stability to temperature and moisture,"[4]; 4 days in air, 60° C. or 80° C., dry atmosphere or moisture",at least as stable as amorphous
same,Physical form when exposed to moisture,[4],maintained the powdered form
same,Content of water in sample after crystallization,[5]; after crystallization at 80% relative humidity,approximately 13%
same,Relative humidity at which bound water is lost and the sample transforms into amorphous form,[5]; decreasing relative humidity,below 20%
same,Solubility (comparison in words),[2]; in water,"less soluble than known Form I, or amorphous losartan potassium"
"CCCCc1nc(Cl)c(CO)n1Cc1ccc(-c2ccccc2-c2nnn[n-]2)cc1.[K+] [polymorph Form Y, potassium salt of 2-n-butyl-4-chloro-5-hydroxymethyl-1-[[2′-(1H-tetrazol-5-yl)[1.1′-biphenyl]-4-yl]methyl]-1H-imidazole]",Polymorph form after exposure to heat while dried,[6],Polymorph Form X was obtained
